Assay results: patent US20200222347A1, “ANTIMICROBIALS AND METHODS OF USE THEREOF” (priority 2013, published 2020)
Values joined by “and” are separate entries in the source; they are usually repeats but may differ in a detail not shown here. Equal entries are not always repeated.

Columns and labels:
all bacteria tested = test: In vitro antimicrobial susceptibility, whole panel; assay type: cell-based
K. pneumoniae = test: Kirby-Bauer disc diffusion antimicrobial susceptibility; assay type: cell-based; conditions: 100 mM, carrier water; 18-24 hours for aerobes
[1] = tested on: Pseudomonas aeruginosa ATCC9027; test: Paper disc test with water or propylene glycol, Example 10
Legionella 43662 = assay type: cell-based
S. aureus 33591 (MRSA) = test: Kirby-Bauer disc diffusion antimicrobial susceptibility; assay type: cell-based, Staphylococcus aureus; conditions: 100 mM, carrier water; 18-24 hours for aerobes
[2] = tested on: E. coli, ATTC 8739 and ATCC 43895; test: as above; assay type: cell-based; conditions: 100 mM, carrier water; 18-24 hours for aerobes
P. aeruginosa = test: as above; assay type: cell-based, Pseudomonas aeruginosa; conditions: 100 mM, carrier water; 18-24 hours for aerobes
[3] = tested on: Staphylococcus aureus ATCC33591 (MRSA); test: Paper disc test with water or propylene glycol, Example 10
[4] = tested on: Staphylococcus epidermidis ATCC 51625 (MRSE); test: In vitro antimicrobial test (FIG. 32); assay type: cell-based
[5] = tested on: Aureobasidium pullulans, ATCC 15233; test: In vitro test of 2, 4, 6 Trihydroxybenzaldehyde against a fungi; assay type: cell-based; conditions: 100 mM
S. aureus 6538 = test: Kirby-Bauer disc diffusion antimicrobial susceptibility; assay type: cell-based; conditions: 100 mM, carrier water; 18-24 hours for aerobes
C. perfringens = assay type: cell-based; conditions: 100 mM, carrier water
C difficile = test: Kirby-Bauer disc diffusion antimicrobial susceptibility; assay type: cell-based; conditions: 100 mM, carrier water; 48 hours for anaerobes
S. pyogenes = test: as above; assay type: cell-based; conditions: 100 mM, carrier water
S. mutans = test: as above; assay type: cell-based; conditions: 100 mM, carrier water

## COc1cc(C(=O)O)ccc1O [vanillic acid]
All bacteria tested
  antibiotic properties (summary): little activity

## O=Cc1c(O)cc(O)cc1O [2, 4, 6 Trihydroxybenzaldehyde, 2, 4, 6 trihydroxybenzaldehyde]
K. pneumoniae
  effectiveness against K. pneumoniae: effective
[1]; PPG
  inhibition of growth under the sample: I
  zone of inhibition: 3 mm
[1]; Water
  inhibition of growth under the sample: I
[1]; Water, listed as 246 THBA
  zone of inhibition: 2 mm and 3 mm
All bacteria tested
  antibiotic properties (summary): broad spectrum antibiotic
Legionella 43662
  effectiveness against Legionella 43662: effective
S. aureus 33591 (MRSA)
  effectiveness against S. aureus 33591 (MRSA): effective
[2]
  effectiveness against E. coli: effective
P. aeruginosa
  effectiveness against P. aeruginosa: effective
[3]; PPG
  inhibition of growth under the sample: I
  zone of inhibition: 12 mm
[3]; Water
  inhibition of growth under the sample: I
[3]; Water, listed as 246 THBA
  zone of inhibition: 14 mm and 15 mm
[4]
  effectiveness against MRSE ATCC 51625: effective
[5]
  effectiveness against A. pullulans, a fungi: effective
S. aureus 6538
  effectiveness against S. aureus 6538: effective

## O=C(O)CNC(=O)c1ccccc1 [hippuric acid]
All bacteria tested
  antibiotic properties (summary): little activity

## CC1(C)S[C@@H]2[C@H](NC(=O)[C@H](N)c3ccc(O)cc3)C(=O)N2[C@H]1C(=O)O [Amoxicillin, amoxicillin, reference compound]
P. aeruginosa
  effectiveness against P. aeruginosa: no effect

## Oc1cc(O)c2cc(O)c(-c3ccc(O)c(O)c3)[o+]c2c1.[Cl-] [Cyanidin CI, cyanidin chloride]
C. perfringens
  effectiveness against C. perfringens (growth inhibition): effective
All bacteria tested
  antibiotic properties (summary): limited antibiotic properties
S. aureus 33591 (MRSA)
  effectiveness against S. aureus 33591 (MRSA): effective
C difficile
  effectiveness against C. difficile (growth inhibition): effective
S. pyogenes
  effectiveness against S. pyogenes: effective
S. mutans
  effectiveness against S. mutans: effective
S. aureus 6538
  effectiveness against S. aureus 6538: effective
